# Results reported in paper PMC10909654 (The Journal of Cell Biology, 2024).
# Tests used:
# FABP7 [1] = target: T1, FABP7 (Homo sapiens, UniProt O15540); test: radioligand competition against 3H-cholesterol; format: binding; conditions: 1.5 µM cholesterol, pH 7.4, 25 °C, competitive
# T1 sequence (O15540 2-132): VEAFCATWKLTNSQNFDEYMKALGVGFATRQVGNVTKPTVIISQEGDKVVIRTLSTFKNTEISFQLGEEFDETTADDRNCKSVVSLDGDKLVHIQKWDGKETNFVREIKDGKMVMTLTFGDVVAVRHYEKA
# FABP7 [2] = target: T1, FABP7; conditions: 0.5 µM protein, 5 mol% DHE in donor liposomes, pH 7.2, 25 °C
# FABP8 [3] = target: T2, FABP8 (Homo sapiens, UniProt P02689); conditions: 0.5 µM protein, 5 mol% DHE in donor liposomes, pH 7.2, 25 °C
# FABP3 [4] = target: T3, FABP3 (Homo sapiens, UniProt P05413); conditions: 0.5 µM protein, 5 mol% DHE in donor liposomes, pH 7.2, 25 °C
# FABP3 [5] = target: T3, FABP3; test: radioligand binding, Ni bead pull-down, scintillation counting; conditions: 1.5 µM ligand, 150 nM protein; labelled compound; pH 7.4, 25 °C
# FABP8 [6] = target: T2, FABP8; test: as above; conditions: 1.5 µM ligand, 150 nM protein; labelled compound; pH 7.4, 25 °C
# FABP7 [7] = target: T1, FABP7; test: as above
# FABP3 [8] = target: T3, FABP3; test: as above; conditions: 1.5 µM ligand, 150 nM protein; labelled compound; pH 7.4, 25 °C; remark: listed apart in the source
# FABP8 [9] = target: T2, FABP8; test: as above; conditions: 1.5 µM ligand, 150 nM protein; labelled compound; pH 7.4, 25 °C; remark: listed apart in the source
# T2 sequence (P02689 2-132): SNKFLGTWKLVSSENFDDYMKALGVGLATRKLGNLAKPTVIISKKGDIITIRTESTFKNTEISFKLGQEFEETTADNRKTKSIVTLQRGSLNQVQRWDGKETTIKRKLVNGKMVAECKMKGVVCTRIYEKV
# T3 sequence (P05413 2-133): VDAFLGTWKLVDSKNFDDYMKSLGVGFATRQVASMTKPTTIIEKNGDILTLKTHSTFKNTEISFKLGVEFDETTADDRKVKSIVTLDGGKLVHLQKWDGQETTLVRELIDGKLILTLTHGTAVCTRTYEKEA
structure (smiles),measurement,setting,value
CCCCC/C=C\C/C=C\C/C=C\C/C=C\CCCC(=O)O [arachidonic acid],relative 3H-cholesterol bound,FABP7 [1]; competitor 7.5 µM,all the tested fatty acids could compete with ^3H-cholesterol for FABP7 binding
CCCCCCCCCCCCCCCC(=O)O [palmitic acid],relative 3H-cholesterol bound,FABP7 [1]; competitor 7.5 µM,all the tested fatty acids could compete with ^3H-cholesterol for FABP7 binding
CC/C=C\C/C=C\C/C=C\C/C=C\C/C=C\C/C=C\CCC(=O)O [docosahexaenoic acid],relative 3H-cholesterol bound,FABP7 [1]; competitor 7.5 µM,all the tested fatty acids could compete with ^3H-cholesterol for FABP7 binding
CC(C)[C@@H](C)/C=C/[C@@H](C)[C@H]1CC[C@H]2C3=CC=C4C[C@@H](O)CC[C@]4(C)C3=CC[C@]12C [dehydroergosterol],initial transport rate,FABP7 [2],The purified FABP7 protein promoted DHE transport
same,initial transport rate,FABP8 [3],FABP3 and FABP8 could transfer DHE as efficiently as FABP7
same,initial transport rate,FABP3 [4],FABP3 and FABP8 could transfer DHE as efficiently as FABP7
CC(C)CCC[C@@H](C)[C@H]1CC[C@H]2[C@@H]3CC=C4C[C@@H](O)CC[C@]4(C)[C@H]3CC[C@]12C [cholesterol],relative 3H-cholesterol bound,FABP3 [5],FABP3 showed modestly yet significantly reduced binding affinity for cholesterol
same,relative 3H-cholesterol bound,FABP8 [6],FABP8 bound cholesterol as potently as FABP7
same,Kd,FABP7 [7],3.04 ± 0.78 µM
CCCCCCCC/C=C\CCCCCCCC(=O)O [oleic acid],relative 3H-cholesterol bound,FABP7 [1]; competitor 3.75-15 µM,oleic acid was the most potent ligand and showed a dose-dependent competing effect
same,relative 3H-oleic acid bound,FABP3 [8],Both FABP3 and FABP8 could bind oleic acid avidly
same,relative 3H-oleic acid bound,FABP8 [9],Both FABP3 and FABP8 could bind oleic acid avidly
